Source: patent US9808470B2, “Estrogenic components for use in the treatment of neurological disorders” (UNIVERSITE DE LIEGE, priority 2012, dated 2017)
Several values for one entry are separate records, joined by “and”; a condition that tells them apart may be missing. Equal entries are not always repeated.

Key:
[1] = Ex.2 neonatal HIE rat model, pre-treatment: body weight; assay type: in vivo
Experimental: Sprague-Dawley pregnant rats were obtained from Janvier (France). After delivery newborn rat pups were housed with their dams and reared normally at room temperature (25° C.) under a 12-hour light-dark cycle. All experimental protocols were approved by the University of Liege Ethical Committee. All efforts were made to minimize animal suffering.
Estetrol (E4) was dissolved in saline solution at different concentrations and an equal volume (5 μl/g) of the solution was injected intraperitoneally into the pups from the E4 group(s). Rat pups from the Vehicle group were intraperitoneally injected a saline solution. Rat pups from the Sham group were not injected at all.
Ischemia was produced by surgery encompassing left common carotid artery double ligation and cut; hypoxia was produced by the inhalation of 11%-8% of oxygen balanced by nitrogen at decreased concentration of oxygen for 20 minutes, followed by inhalation of 8% oxygen and 92% nitrogen at constant concentration for 35 minutes.
After delivery, newborn rat pups were assigned to one of the following 4 groups: Sham group, Vehicle group, E4 5 mg/kg/per day group and E4 50 mg/kg/per day group. From day 4 to day 7 inclusive, rat pups were injected intraperitoneally either vehicle (Vehicle group) or E4 (5 mg/kg or 50 mg/kg in accordance to the group assignment) or not injected at all (Sham group). At day 7, 30 minutes after last injection, animals from Vehicle and E4 (5 mg/kg or 50 mg/kg) groups passed through surgery encompassing left common carotid artery double ligation and cut, followed by hypoxia produced by the inhalation of 11%-8% of oxygen balanced by nitrogen at decreased concentration for 20 minutes, followed by inhalation of 8% oxygen and 92% nitrogen at constant concentration for 35 minutes. The Sham group went through similar procedures without left common carotid artery ligation and hypoxia. All the manipulations were performed at 37° C. Rat pups recovered with their dams until being sacrificed at postnatal day 14. […]

[2] = test system: Myelin Basic Protein (MBP); assay: Ex.7 therapeutic HIE rat model: myelin basic protein staining; assay type: in vivo; details: all the E4 treated groups, vs vehicle
Experimental: FIG. 22. Myelin Basic Protein (MBP) staining of brain coronal sections in rat pups that were treated with estetrol. Brains were removed upon sacrifice at postnatal day 14 and paraformaldehyde-fixed and paraffin-embedded brain samples were coronally sectioned at the hippocampus region. The sections were processed for detection of white matter damage through immunohistological staining with anti-MBP antibody. (A-F) MBP staining of brain coronal sections (scale bar: 2 mm) is shown. (G-L) MBP staining of cingulum of the left hemisphere is (scale bar: 2 mm) is shown. (M) The ratio of the MBP positive areas OD ratio was calculated as the MBP positive area OD of the ipsilateral hemisphere divided by the MBP positive area OD of the contralateral hemisphere. 10 samples from each study group were analyzed. The ratio of the MBP positive area OD in the Sham group was considered by default as 1.0.
The sections were processed for immunohistochemical detection of neuronal myelin basic protein disruption. For antigen retrieval, the sections were heated in 10 mmol/L citrate buffer (pH 6.0) at 100° C. for 10 min. […] 10 samples from each study group of both study designs were analyzed with the aid of an image scanner (Nanozoomer Virtual Microscopy, Hamamatsu, Tokyo, Japan) and ImageJ software (NIH, USA). The MBP positive areas optical densities in the ipsilateral and contralateral hemispheres were measured. […]

[3] = octanol-water; depending on experimental settings; listed as estetrol; cited from earlier work

In the case of `C[C@]12CC[C@@H]3c4ccc(O)cc4CC[C@H]3[C@@H]1[C@@H](O)[C@@H](O)[C@@H]2O` [E4, 1,3,5(10)-estratrien-3,15α,16α,17β-tetrol], the body weight ([1]; E4 5 mg/kg ip day 4-7 before HI, day 8, vs Sham) is reported as “sham operated group had significantly higher body weight”, the body weight ([1]; E4 5 mg/kg ip day 4-7 before HI, post-operative days 13 and 14, vs vehicle) is reported as “significantly higher body weight than vehicle treated animals” and the body weight ([1]; E4 50 mg/kg ip day 4-7 before HI, day 10, vs Sham) is reported as “sham operated group had significantly higher body weight”. The “ratio of the MBP-positive area OD” value [2] was “significantly higher” and the “Pow Log” value [3] was 1.47 and 1.695.
